Measurements taken from patent US9475789B2, “Use of polyenylpyrrole derivatives for treating inflammation” (WELLHEAD BIOLOGICAL TECHNOLOGY CORP., priority 2014, dated 2016).

Tests used:
proIL-1β = test: Western blot of proIL-1β, LPS-activated J774A.1 macrophages; format: cell-based, mouse; settings: compound 30 min, then LPS 6 h
Procedure: (A) J774A.1 macrophages (1×10^6/ml) and (B) peritoneal macrophages (1×10^5/ml) were incubated with compound 1h for 30 min followed by LPS (1 μg/ml) stimulating for 5.5 h, then the cells were stimulated with ATP (5 mM) for an additional 30 min. The IL-1β in the culture medium was measured by ELISA and the expression of active caspase-1 (p10) was measured by Western blot. In (C) and (D), J774A.1 macrophages (1×10^6/ml) were incubated with LPS (1 μg/ml) for 5.5 h, then cells were incubated with compound 1h for 30 min followed by stimulating with ATP (5 mM) for an additional 30 min. The IL-1β and IL-6 in the culture medium were measured by ELISA and the expression of active caspase-1 (p10) was measured by Western blot. In (E), J774A.1 macrophages (1×10^6/ml) were incubated with compound 1h for 30 min followed by LPS (1 μg/ml) stimulating for 6 h. The expression of NLRP3 and proIL-1β were measured by Western blot.
Whole cell lysates were separated by SDS-PAGE and electrotransferred to a PVDF membrane. The membranes were incubated in blocking solution—5% nonfat milk in phosphate buffered saline with 0.1% Tween 20—at room temperature for 1 h. Each membrane was incubated with a specific primary antibody at room temperature for 2 h. After washing three times in PBS with 0.1% Tween 20, the membrane was incubated with an HRP-conjugated secondary antibody directed against the primary antibody. […]

ROS = test: Intracellular ROS production, LPS-activated RAW 264.7 macrophages; format: cell-based, murine; settings: compound 1h 20 μM, NAC 10 mM, 30 min before LPS
Procedure: (§1) In (A), RAW 264.7 macrophages (5×10^5/ml) were incubated with compound 1h (20 μM), N-acetyl cysteine (NAC; 10 mM) or DMSO (vehicle) for 30 min followed by LPS (1 μg/ml) stimulating for the indicated time, then ROS levels were measured by detection of the fluorescence intensity of the fluorophore carboxyl-DCF and expressed relative to those at time zero. In (B), RAW 264.7 macrophages (5×10^5/ml) were incubated with compound 1h (20 μM) or DMSO for 30 min followed by LPS (1 μg/ml) stimulating for 0-60 min, then the phosphorylation levels of ERK1/2, JNK1/2, p38 were analyzed by Western blot. In (C), J774A.1 macrophages (5×10^5/ml) were incubated with compound 1h or DMSO for 30 min followed by LPS (1 μg/ml) stimulating for 20 min, then the phosphorylation levels of ERK1/2, JNK1/2, p38 were analyzed by Western blot.
Intracellular ROS stimulated by LPS was measured by detecting the fluorescence intensity of the 2′,7′-dichlorofluorescein diacetate (H2DCFDA) oxidized product (DCF) (Molecular Probes, Eugene, Oreg.). […] The relative fluorescence intensity of fluorophore DCF, formed by peroxide oxidation of the non-fluorescent precursor, was detected at an excitation wavelength of 485 nm and an emission wavelength of 530 nm with a microplate absorbance reader (Bio-Rad Laboratories, Inc).

ERK1/2, JNK1/2, p38 = test: Western blot of MAPK phosphorylation, LPS-activated RAW 264.7 macrophages; format: cell-based, murine; settings: compound 1h 20 μM
Procedure: as §1
Whole cell lysates were separated by SDS-PAGE and electrotransferred to a PVDF membrane. The membranes were incubated in blocking solution—5% nonfat milk in phosphate buffered saline with 0.1% Tween 20—at room temperature for 1 h. Each membrane was incubated with a specific primary antibody at room temperature for 2 h. After washing three times in PBS with 0.1% Tween 20, the membrane was incubated with an HRP-conjugated secondary antibody directed against the primary antibody. The membrane was developed by an enhanced chemiluminescence Western blot detection system.

NF-κB p65 = NF-κB p65 nuclear translocation ELISA, RAW 264.7 macrophages; format: cell-based, murine; settings: compound 1h 10-40 μM, LPS 20 min
Procedure: (A) RAW 264.7 macrophages (5×10^5/ml) or (B) J774A.1 macrophages (5×10^5/ml) were incubated with compound 1h or DMSO for 30 min followed by LPS (1 μg/ml) stimulating for 20 min, then the phosphorylation levels of IKK-α and IκB-α and total IκB-α protein level were analyzed by Western blot. (C) RAW 264.7 macrophages (5×10^5/ml) or (D) J774A.1 macrophages (5×10^5/ml) were incubated with compound 1h (10-40 μM) or DMSO for 30 min followed by LPS (1 μg/ml) stimulating for 20 min, then the nuclear translocation of NF-κB were analyzed by ELISA. (E) RAW-Blue™ cells (5×10^5/ml) were incubated with compound 1h (2.5-40 μM) or DMSO for 30 min followed by LPS (1 μg/ml) stimulating for 24 h, then the SEAP activity was measured by QUANTI-Blue™. […] In (C), (D), and (E), the data are expressed as the mean±SD for three separate experiments. *, **, and *** indicate a significant difference at the level of p<0.05, p<0.01, and p<0.001 respectively compared to LPS group.
Nuclear protein from RAW 264.7 and J774A.1 cells were extracted using a Nuclear Extract Kit (Active Motif) according to the manufacturer's instructions and nuclear NF-κB p65 activation quantified using an ELISA-based TransAM NF-κB kit (Active Motif, Tokyo, Japan) according to the manufacturer's protocol by reading the absorbance with a microplate absorbance reader (Bio-Rad Laboratories, Inc) at 450 nm with a reference wavelength of 655 nm.

O=c1cc(O)cc(/C=C/C=C/C=C/C=C/c2[nH]ccc2Cl)o1 [Compound 1h]
LPS-induced proIL-1β expression (proIL-1β): inhibited LPS-induced proIL-1β expression in a dose-dependent fashion
LPS-stimulated ROS production (ROS): able to reduce LPS-stimulated ROS production
phosphorylation level of ERK1/2 (ERK1/2, JNK1/2, p38): inhibited
phosphorylation level of JNK1/2 (ERK1/2, JNK1/2, p38): inhibited
phosphorylation level of p38 (ERK1/2, JNK1/2, p38): inhibited
NF-κB nuclear translocation (NF-κB p65): inhibited NF-κB nuclear translocation
